Assay [1] concerns the target T1, TRPM2 (Homo sapiens, UniProt O94759). In words: whole-cell patch clamp, HEK293 expressing hTRPM2. It counts as cell-based. (In general: The patch-clamp technique gives a direct electrical read-out from membranes.)
Assay [2] concerns the target T1, TRPM2. The assay is described as follows: whole-cell patch clamp. It counts as cell-based.

The text below walks through data of article PMC5563452 (Nature chemical biology, 2017).

Each structure is given as a SMILES string.

T1 sequence (O94759 whole entry): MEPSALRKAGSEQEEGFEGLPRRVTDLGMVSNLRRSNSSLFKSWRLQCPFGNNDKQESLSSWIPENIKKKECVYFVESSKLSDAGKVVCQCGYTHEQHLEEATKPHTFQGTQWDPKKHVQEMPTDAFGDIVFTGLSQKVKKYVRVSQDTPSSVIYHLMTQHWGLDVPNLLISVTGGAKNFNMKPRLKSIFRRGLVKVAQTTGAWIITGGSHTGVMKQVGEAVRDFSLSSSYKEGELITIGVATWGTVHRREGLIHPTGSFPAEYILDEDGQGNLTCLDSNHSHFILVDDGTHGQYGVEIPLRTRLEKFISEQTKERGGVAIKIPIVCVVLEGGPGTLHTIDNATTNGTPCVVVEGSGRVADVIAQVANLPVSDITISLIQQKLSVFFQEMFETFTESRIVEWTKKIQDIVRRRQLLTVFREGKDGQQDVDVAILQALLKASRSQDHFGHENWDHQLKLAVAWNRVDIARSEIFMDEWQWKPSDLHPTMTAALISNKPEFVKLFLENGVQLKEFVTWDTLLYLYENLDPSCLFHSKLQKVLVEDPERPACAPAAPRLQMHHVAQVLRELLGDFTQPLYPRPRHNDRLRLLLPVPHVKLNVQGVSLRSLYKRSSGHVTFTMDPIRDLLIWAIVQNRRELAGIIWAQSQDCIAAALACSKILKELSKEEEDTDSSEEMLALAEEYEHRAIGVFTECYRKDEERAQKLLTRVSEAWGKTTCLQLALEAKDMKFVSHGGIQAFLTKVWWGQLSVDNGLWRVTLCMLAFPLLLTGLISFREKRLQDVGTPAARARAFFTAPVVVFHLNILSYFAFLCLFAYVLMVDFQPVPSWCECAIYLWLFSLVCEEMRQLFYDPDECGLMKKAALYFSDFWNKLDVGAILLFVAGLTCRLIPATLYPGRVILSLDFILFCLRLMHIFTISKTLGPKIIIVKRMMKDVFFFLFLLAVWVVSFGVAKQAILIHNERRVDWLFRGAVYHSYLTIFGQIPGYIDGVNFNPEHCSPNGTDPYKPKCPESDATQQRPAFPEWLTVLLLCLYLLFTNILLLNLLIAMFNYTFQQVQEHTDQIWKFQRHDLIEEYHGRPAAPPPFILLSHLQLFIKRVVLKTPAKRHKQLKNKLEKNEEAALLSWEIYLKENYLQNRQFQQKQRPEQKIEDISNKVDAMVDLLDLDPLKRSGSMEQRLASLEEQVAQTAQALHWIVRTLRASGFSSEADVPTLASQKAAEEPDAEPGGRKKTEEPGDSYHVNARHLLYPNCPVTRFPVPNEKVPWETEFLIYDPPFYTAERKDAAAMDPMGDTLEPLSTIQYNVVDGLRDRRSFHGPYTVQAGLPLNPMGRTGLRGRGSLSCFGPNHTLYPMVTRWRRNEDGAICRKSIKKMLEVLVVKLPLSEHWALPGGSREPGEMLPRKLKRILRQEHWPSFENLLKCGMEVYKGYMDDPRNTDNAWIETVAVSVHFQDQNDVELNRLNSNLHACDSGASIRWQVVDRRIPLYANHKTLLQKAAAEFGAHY

For `Nc1ncnc2c1ncn2[C@@H]1O[C@H](COP(=O)(O)OP(=O)(O)OC[C@H]2OC(O)[C@H](O)[C@@H]2O)[C@@H](O)[C@H]1OP(=O)(O)O` (stereo partly drawn) [compound 15, 2′-phospho-ADPR], the EC50 (commonly the concentration needed to bring the measured effect to its halfway point) at TRPM2 [1] stood at 110 µM.
On to `Nc1ncnc2c1ncn2[C@@H]1O[C@H](COP(=O)(O)OP(=O)(O)OC[C@H]2OC(O)[C@H](O)[C@@H]2O)[C@@H](O)[C@H]1O` (stereo partly drawn) [compound 1, ADPR], for which the half-maximal effective concentration (EC50) at TRPM2 [2] was determined as 28 µM.
`Nc1ncnc2c1ncn2[C@@H]1O[C@H](COP(=O)(O)OP(=O)(O)OC[C@H]2OC(O)[C@H](O)[C@@H]2O)C[C@H]1O` (stereo partly drawn) [compound 17, 3′-deoxy-ADPR] registered an EC50 on TRPM2 [1] of 46 µM.
